Experimental data from patent publication US8148391B2 (Cephalon, Inc., priority 2006, dated 2012).
Where two headings read alike, the source gives them in different places. Each block holds one molecule with its values, some of them ahead of it.

Experiments:
[1] = target: T1, c-Met (cytoplasmic domain) (Homo sapiens, UniProt P08581); test: c-Met Kinase Assay (same methods as for ALK, with modifications); format: biochemical
T1 construct: 10 ng/mL c-Met (cytoplasmic domain, Invitrogen Corporation #PV3143); purchased Invitrogen Corporation PV3143
T1 sequence (P08581 956-1390 limits assumed): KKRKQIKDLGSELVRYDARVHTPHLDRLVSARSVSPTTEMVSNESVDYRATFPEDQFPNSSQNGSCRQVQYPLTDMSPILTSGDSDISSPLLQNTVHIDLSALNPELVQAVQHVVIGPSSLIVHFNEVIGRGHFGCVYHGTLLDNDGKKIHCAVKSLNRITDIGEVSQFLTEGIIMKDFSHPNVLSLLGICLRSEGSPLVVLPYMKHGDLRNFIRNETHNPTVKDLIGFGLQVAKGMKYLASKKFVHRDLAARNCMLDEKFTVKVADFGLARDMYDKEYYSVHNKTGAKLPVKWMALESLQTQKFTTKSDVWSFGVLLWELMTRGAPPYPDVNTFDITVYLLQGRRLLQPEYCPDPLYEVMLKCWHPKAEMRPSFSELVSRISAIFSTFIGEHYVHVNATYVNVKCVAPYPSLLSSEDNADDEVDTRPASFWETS
Procedure, shortened: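 Plates were coated with phospholipase C-γ substrate (10 μg/mL) in TBS, and the reaction was started with 10 ng/mL c-Met cytoplasmic domain and run 15 min at 37 °C. Phosphoproduct was detected with Eu-N1-labelled PT66 antibody. IC50 came from a variable-slope sigmoidal fit of percent inhibition vs log concentration.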

[2] = target: T2, baculovirus-expressed ALK (Homo sapiens, UniProt Q9UM73); test: ALK Kinase Assay (ELISA-type, time-resolved fluorescence); format: biochemical
T2 construct: host or cells: baculovirus expression system
T2 sequence (Q9UM73 19-1620): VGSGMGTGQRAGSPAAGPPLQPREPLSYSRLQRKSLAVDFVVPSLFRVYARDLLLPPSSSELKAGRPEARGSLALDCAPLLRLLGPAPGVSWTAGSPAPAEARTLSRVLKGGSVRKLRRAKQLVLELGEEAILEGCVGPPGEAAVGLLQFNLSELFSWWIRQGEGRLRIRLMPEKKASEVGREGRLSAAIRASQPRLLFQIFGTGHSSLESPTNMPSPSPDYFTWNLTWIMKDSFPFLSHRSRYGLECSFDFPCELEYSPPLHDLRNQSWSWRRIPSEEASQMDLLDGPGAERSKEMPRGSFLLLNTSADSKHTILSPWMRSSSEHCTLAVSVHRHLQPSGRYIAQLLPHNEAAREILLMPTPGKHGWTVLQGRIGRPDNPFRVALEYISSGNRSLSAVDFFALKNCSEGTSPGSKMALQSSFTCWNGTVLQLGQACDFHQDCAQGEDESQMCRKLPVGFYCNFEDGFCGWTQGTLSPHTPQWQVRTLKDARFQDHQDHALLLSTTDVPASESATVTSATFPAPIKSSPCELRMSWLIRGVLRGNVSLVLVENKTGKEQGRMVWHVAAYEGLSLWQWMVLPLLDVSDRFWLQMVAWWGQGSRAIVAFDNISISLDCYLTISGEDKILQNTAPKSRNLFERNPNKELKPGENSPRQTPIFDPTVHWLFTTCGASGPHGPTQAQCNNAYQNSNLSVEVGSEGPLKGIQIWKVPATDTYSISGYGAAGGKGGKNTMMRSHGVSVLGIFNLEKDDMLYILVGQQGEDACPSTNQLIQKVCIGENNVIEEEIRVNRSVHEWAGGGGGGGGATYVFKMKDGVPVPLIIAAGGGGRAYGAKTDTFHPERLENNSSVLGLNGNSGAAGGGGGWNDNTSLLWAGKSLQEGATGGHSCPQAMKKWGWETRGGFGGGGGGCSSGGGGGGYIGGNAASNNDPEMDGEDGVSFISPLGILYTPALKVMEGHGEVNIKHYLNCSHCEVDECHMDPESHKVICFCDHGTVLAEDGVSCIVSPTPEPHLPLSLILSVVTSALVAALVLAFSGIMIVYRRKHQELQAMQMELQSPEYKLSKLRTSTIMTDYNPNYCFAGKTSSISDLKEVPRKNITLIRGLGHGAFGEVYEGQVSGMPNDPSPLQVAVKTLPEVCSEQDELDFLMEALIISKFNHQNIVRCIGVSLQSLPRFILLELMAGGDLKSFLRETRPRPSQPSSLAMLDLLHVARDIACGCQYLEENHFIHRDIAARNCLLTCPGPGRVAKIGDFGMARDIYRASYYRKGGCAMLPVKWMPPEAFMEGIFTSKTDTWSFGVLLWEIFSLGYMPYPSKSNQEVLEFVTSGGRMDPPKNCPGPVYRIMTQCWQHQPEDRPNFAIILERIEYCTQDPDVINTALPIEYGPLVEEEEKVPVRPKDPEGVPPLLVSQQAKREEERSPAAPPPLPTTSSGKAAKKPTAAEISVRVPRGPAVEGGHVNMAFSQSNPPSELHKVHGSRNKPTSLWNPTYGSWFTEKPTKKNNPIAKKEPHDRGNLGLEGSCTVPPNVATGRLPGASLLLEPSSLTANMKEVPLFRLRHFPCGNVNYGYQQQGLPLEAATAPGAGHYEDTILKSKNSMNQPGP
Procedure, shortened: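 Plates coated with phospholipase C-γ substrate (10 μg/mL in TBS); reaction started with 30 ng/ml ALK and run 15 min at 37° C. Phosphorylated substrate detected with Eu-N1-labeled PT66 antibody. IC50 from sigmoidal variable-slope fit of percent inhibition vs log concentration.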

[3] = 1 μM ATP (Km level), read-out: cMet Activity (c-Met Kinase Inhibition, IC50)
[4] = 1 μM ATP (Km level), read-out: ALK Activity (ALK Kinase Inhibition, IC50)
[5] = 1 μM ATP (Km level), 10 ng/mL c-Met, read-out: cMet Activity (c-Met kinase inhibition, IC50 class)
[6] = 1 μM ATP (Km level), 30 ng/ml ALK, 37° C., 15 minutes, read-out: ALK Activity (ALK kinase inhibition, IC50 class)
[7] = c-Met kinase inhibition, 1 μM ATP (Km level), read-out: cMet Activity
[8] = ALK kinase inhibition, 1 μM ATP (Km level), read-out: ALK Activity
[9] = c-Met kinase inhibition, 1 μM ATP, read-out: cMet Activity
[10] = ALK kinase inhibition, 1 μM ATP, read-out: ALK Activity

Molecule: COCCN1CCc2cc(Nc3ncc(Cl)c(Nc4ccc(OC)cc4-n4cccn4)n3)c(OC)cc2CC1 [Example 612, 5-Chloro-N*2*-[8-methoxy-3-(2-methoxy-ethyl)-2,3,4,5-tetrahydro-1H-benzo[d]azepin-7-yl]-N*4*-(4-methoxy-2-pyrazol-1-yl-phenyl)-pyrimidine-2,4-diamine]
IC50 [1, 3]: > 10000 nM | IC50 [2, 4]: < 100 nM

Molecule: COc1ccc2c(c1Nc1ncc(Cl)c(Nc3ccccc3-n3cccn3)n1)CCC(NCC(F)F)CC2 (centres unmarked) [Example 1076, 5-Chloro-N*2*-[7-(2,2-difluoro-ethylamino)-2-methoxy-6,7,8,9-tetrahydro-5H-benzocyclohepten-1-yl]-N*4*-(2-pyrazol-1-yl-phenyl)-pyrimidine-2,4-diamine]
IC50 [1, 5]: > 10000 nM | IC50 [2, 6]: 100 to 1000 nM

Molecule: CC(C)NC(=O)c1ccccc1Nc1nc(Nc2ccc3c(c2)C(C)(C)CCC(=O)N3)ncc1Cl [Example 340]
IC50 [1, 7]: 100 to 1000 nM | IC50 [2, 8]: < 100 nM

Molecule: CCN1C(=O)CCCc2c1ccc(Nc1ncc(Cl)c(N[C@H]3[C@@H](C(=O)NC)[C@@H]4C=C[C@H]3C4)n1)c2OC (relative stereo) [Example 601, (2-exo-3-exo)-3-[5-Chloro-2-(1-ethyl-6-methoxy-2-oxo-2,3,4,5-tetrahydro-1H-benzo[b]azepin-7-ylamino)-pyrimidin-4-ylamino]-bicyclo[2.2.1]hept-5-ene-2-carboxylic acid methylamide]
IC50 [1, 3]: > 10000 nM | IC50 [2, 4]: < 100 nM

Molecule: 2-[5-Chloro-2-(1-methyl-1,2,3,5-tetrahydro-benzo[e][1,4]oxazepin-7-ylamino)-pyrimidin-4-ylamino]-N-(2-hydroxy-ethyl)-benzamide and 2-{2-[5-Chloro-2-(1-methyl-1,2,3,5-tetrahydro-benzo[e][1,4]oxazepin-7-ylamino)-pyrimidin-4-ylamino]-phenyl}-oxazolidin-2-ol [Example 16]
IC50 [1, 7]: < 100 nM | IC50 [2, 8]: < 100 nM

Molecule: COc1ccc(Nc2nc(Nc3cc4c(cc3OC)CCN(CC(=O)N(C)C)CC4)ncc2Cl)c(S(=O)(=O)C(C)C)c1 [Example 1162, 2-(7-{5-Chloro-4-[4-methoxy-2-(propane-2-sulfonyl)-phenylamino]-pyrimidin-2-ylamino}-8-methoxy-1,2,4,5-tetrahydro-benzo[d]azepin-3-yl)-N,N-dimethyl-acetamide]
IC50 [1, 5]: > 10000 nM | IC50 [2, 6]: < 100 nM

Molecule: COc1c(Nc2ncc(Cl)c(N[C@@H]3CCCC[C@H]3NS(C)(=O)=O)n2)ccc2c1CCC(NCCO)CC2 (single isomer, unassigned) [Example 699]
IC50 [1, 3]: > 10000 nM | IC50 [2, 4]: < 100 nM

Molecule: CCN1CCN(CC)c2cc(Nc3ncc(Cl)c(Nc4ccc5c(c4)N(CC)CCN(CC)C5)n3)ccc2C1 [Example 721, 5-Chloro-N*2*,N*4*-bis(1,4-diethyl-2,3,4,5-tetrahydro-1H-benzo[e][1,4]diazepin-8-yl)-pyrimidin-2,4-diamine]
IC50 [1, 3]: > 10000 nM | IC50 [2, 4]: < 100 nM

Molecule: CCN1C(=O)CCCc2ccc(Nc3ncc(Cl)c(Nc4cccc(CC#N)c4)n3)cc21 [Example 1229, {3-[5-Chloro-2-(1-ethyl-2-oxo-2,3,4,5-tetrahydro-1H-1-benzazepin-8-ylamino)-pyrimidin-4-ylamino]-phenyl}-acetonitrile]
IC50 [1, 5]: 100 to 1000 nM | IC50 [2, 6]: 100 to 1000 nM

Molecule: CCN1CC2OC(C1)c1cc(Nc3ncc(Cl)c(Nc4ccccc4S(=O)(=O)NC)n3)ccc12 (centres unmarked) [Example 66, 2-[5-Chloro-2-(10-ethyl-12-oxa-10-aza-tricyclo[6.3.1.0*2,7*]dodeca-2(7),3,5-trien-4-ylamino)-pyrimidin-4-ylamino]-N-methyl-benzenesulfonamide]
IC50 [1, 7]: 1000 to 10000 nM | IC50 [2, 8]: < 100 nM

Molecule: CC1CNC(=O)c2c(Nc3ncc(Cl)c(N[C@@H]4CCCC[C@H]4NS(C)(=O)=O)n3)cccc2N1C(=O)C(F)(F)F (stereo partly drawn) [Example 231, N-((1R,2R)-2-{5-Chloro-2-[2-methyl-5-oxo-1-(2,2,2-trifluoro-acetyl)-2,3,4,5-tetrahydro-1H-benzo[e][1,4]diazepin-6-ylamino]-pyrimidin-4-ylamino}-cyclohexyl)-methanesulfonamide]
IC50 [1, 7]: 1000 to 10000 nM | IC50 [2, 8]: 100 to 1000 nM

Molecule: C#CCNC(=O)c1cccc(F)c1Nc1nc(Nc2ccc3c(c2)NC(=O)C(NC(=O)C(F)(F)F)CC3(C)C)ncc1Cl (centres unmarked) [Example 1279, 2-{5-Chloro-2-[5,5-dimethyl-2-oxo-3-(2,2,2-trifluoro-acetylamino)-2,3,4,5-tetrahydro-1H-1-benzazepin-8-ylamino]-pyrimidin-4-ylamino}-3-fluoro-N-prop-2-ynyl-benzamide]
IC50 [1, 5]: < 100 nM | IC50 [2, 6]: 100 to 1000 nM

Molecule: COc1cc(N2CCOCC2)ccc1Nc1nc(Nc2ccc3c(c2)CCN(C[C@H](OC)C(F)(F)F)CC3)ncc1Cl [Example 337, 5-Chloro-N*4*-(2-methoxy-4-morpholin-4-yl-phenyl)-N*2*-[-((S)-3,3,3-trifluoro-2-methoxy-propyl)-2,3,4,5-tetrahydro-1H-benzo[d]azepin-7-yl]-pyrimidine-2,4-diamine]
IC50 [1, 7]: > 10000 nM | IC50 [2, 8]: < 100 nM

Other lines, results leading:

IC50 [1, 9]: 1000 to 10000 nM | IC50 [2, 10]: < 100 nM
Molecule: COc1cc2c(cc1Nc1ncc(Cl)c(Nc3ccccc3S(=O)(=O)N(C)C)n1)CCN(CCOC(=O)CN)CC2 [Example 1542, Amino-acetic acid 2-{7-[5-chloro-4-(2-dimethylsulfamoyl-phenylamino)-pyrimidin-2-ylamino]-8-methoxy-1,2,4,5-tetrahydro-benzo[d]azepin-3-yl}-ethyl ester]

IC50 [1, 9]: < 100 nM | IC50 [2, 10]: < 100 nM
Molecule: CNC(=O)c1cccc(F)c1Nc1nc(Nc2ccc3c(c2)N(CCN(C)C)CCCC3(C)C)ncc1Cl [Example 1638, 2-{5-Chloro-2-[1-(2-dimethylamino-ethyl)-5,5-dimethyl-2,3,4,5-tetrahydro-1H-benzo[b]azepin-8-ylamino]-pyrimidin-4-ylamino}-3-fluoro-N-methyl-benzamide]

IC50 [1, 5]: 1000 to 10000 nM | IC50 [2, 6]: 100 to 1000 nM
Molecule: COCCN1CCc2ccc(Nc3ncc(Cl)c(N[C@H]4CC[C@@H](N(CC#N)S(C)(=O)=O)CC4)n3)cc2CC1 [Example 1384, cis-N-(4-{5-Chloro-2-[3-(2-methoxy-ethyl)-2,3,4,5-tetrahydro-1H-benzo[d]azepin-7-ylamino]-pyrimidin-4-ylamino}-cyclohexyl)-N-cyanomethyl-methanesulfonamide]

IC50 [1, 9]: < 100 nM | IC50 [2, 10]: 1000 to 10000 nM
Molecule: CCN1C(=O)CN(C(C)=O)Cc2ccc(Nc3ncc(Cl)c(Nc4c(F)cccc4C(=O)NC)n3)cc21 [Example 1851, 2-[2-(4-Acetyl-1-ethyl-2-oxo-2,3,4,5-tetrahydro-1H-benzo[e][1,4]diazepin-8-ylamino)-5-chloro-pyrimidin-4-ylamino]-3-fluoro-N-methyl-benzamide]

IC50 [1, 9]: 1000 to 10000 nM | IC50 [2, 10]: < 100 nM
Molecule: COc1cc(N2CCOCC2)ccc1Nc1nc(Nc2ccc3c(c2)N(CCN2CCCC2)CCCC3(C)C)ncc1Cl [Example 1610, 5-Chloro-N*2*-[5,5-dimethyl-1-(2-pyrrolidin-1-yl-ethyl)-2,3,4,5-tetrahydro-1H-benzo[b]azepin-8-yl]-N*4*-(2-methoxy-4-morpholin-4-yl-phenyl)-pyrimidine-2,4-diamine]

IC50 [1, 5]: 100 to 1000 nM | IC50 [2, 6]: 100 to 1000 nM
Molecule: C#CCNC(=O)c1cccc(F)c1Nc1nc(Nc2ccc3c(c2)OCCCN3C(=O)OCCCN(C)C)ncc1Cl [Example 1427, 3-[5-Chloro-4-(2-fluoro-6-prop-2-ynylcarbamoyl-phenylamino)-pyrimidin-2-ylamino]-7,8-dihydro-6H-5-oxa-9-aza-benzocycloheptene-9-carboxylic acid 3-dimethylamino-propyl ester]
